According to the NIST ThermoML archive (doi:10.1021/acs.jced.8b00438):

What was measured:
[1] = xn = mol fraction of the nth substance listed; details: 100 kPa, Liquid; for viscosity: Falling or rolling sphere viscometry; for mass density: Vibrating tube method
[2] = 100 kPa, Liquid; for viscosity: Falling or rolling sphere viscometry; for mass density: Vibrating tube method

CCCCO [butan-1-ol] + CCCCCCCCCCCC
[1], x2 = 0
Details | mass density [kg/m3] | viscosity [mPa·s]
293.15 K | 809.5 | 2.941
298.15 K | 805.7 | 2.58
303.15 K | 801.87 | 2.274
308.15 K | 798 | 2.012
313.15 K | 794.1 | 1.787
318.15 K | 790.15 | 1.593
323.15 K | 786.16 | 1.426
328.15 K | 782.12 | 1.28
333.15 K | 778.01 | 1.152

C1CCC(C2CCCCC2)CC1 [1,1'-bicyclohexyl]
[2]
Details | mass density [kg/m3] | viscosity [mPa·s]
293.15 K | 886.05 | 4.003
298.15 K | 882.44 | 3.53
303.15 K | 878.84 | 3.137
308.15 K | 875.25 | 2.81
313.15 K | 871.66 | 2.532
318.15 K | 868.08 | 2.296
323.15 K | 864.5 | 2.092
328.15 K | 860.93 | 1.915
333.15 K | 857.35 | 1.762

CCCCCCCCCCCC [dodecane] + C1CCC(C2CCCCC2)CC1
[1], x1 = 1
Details | mass density [kg/m3] | viscosity [mPa·s]
293.15 K | 748.83 | 1.491
298.15 K | 745.22 | 1.366
303.15 K | 741.59 | 1.257
308.15 K | 737.95 | 1.154
313.15 K | 734.31 | 1.076
318.15 K | 730.66 | 1.003
323.15 K | 727 | 0.936
328.15 K | 723.33 | 0.877
333.15 K | 719.65 | 0.823

CCCCCCCCCCCC [dodecane]
[2]
Details | mass density [kg/m3] | viscosity [mPa·s]
293.15 K | 748.83 | 1.491
298.15 K | 745.22 | 1.366
303.15 K | 741.59 | 1.257
308.15 K | 737.95 | 1.154
313.15 K | 734.31 | 1.076
318.15 K | 730.66 | 1.003
323.15 K | 727 | 0.936
328.15 K | 723.33 | 0.877
333.15 K | 719.65 | 0.823

CCCCO [butan-1-ol] + C1CCC(C2CCCCC2)CC1
[1], x2 = 0
Details | mass density [kg/m3] | viscosity [mPa·s]
293.15 K | 809.5 | 2.941
298.15 K | 805.7 | 2.58
303.15 K | 801.87 | 2.274
308.15 K | 798 | 2.012
313.15 K | 794.1 | 1.787
318.15 K | 790.15 | 1.593
323.15 K | 786.16 | 1.426
328.15 K | 782.12 | 1.28
333.15 K | 778.01 | 1.152

CCCCO [butan-1-ol]
[2]
Details | mass density [kg/m3] | viscosity [mPa·s]
293.15 K | 809.5 | 2.941
298.15 K | 805.7 | 2.58
303.15 K | 801.87 | 2.274
308.15 K | 798 | 2.012
313.15 K | 794.1 | 1.787
318.15 K | 790.15 | 1.593
323.15 K | 786.16 | 1.426
328.15 K | 782.12 | 1.28
333.15 K | 778.01 | 1.152
